Results published in patent US20080214537A1, “BRIDGED PHENANTHRIDINES” (CARA THERAPEUTICS, INC., priority 2007, published 2008).
pEC50: −log10 of the molar value.

Key:
[1] = target: human CB2 receptor (hCB2) (Homo sapiens, UniProt P34972); assay: cAMP assay (LANCE TR-FRET) in CHO-K1 cells expressing hCB2; assay type: cell-based; settings: for Emax: CHO-K1, intrinsic activity: percent maximal activation compared to full activation by CP55,940 (1 μM = 100%), read-out: hCB2 % Max Range; for pEC50: CHO-K1 cells stably expressing hCB2, intracellular cAMP, NKH-477 prestimulated, average of at least three replicates
Sequence of human CB2 receptor (hCB2) (P34972 whole entry): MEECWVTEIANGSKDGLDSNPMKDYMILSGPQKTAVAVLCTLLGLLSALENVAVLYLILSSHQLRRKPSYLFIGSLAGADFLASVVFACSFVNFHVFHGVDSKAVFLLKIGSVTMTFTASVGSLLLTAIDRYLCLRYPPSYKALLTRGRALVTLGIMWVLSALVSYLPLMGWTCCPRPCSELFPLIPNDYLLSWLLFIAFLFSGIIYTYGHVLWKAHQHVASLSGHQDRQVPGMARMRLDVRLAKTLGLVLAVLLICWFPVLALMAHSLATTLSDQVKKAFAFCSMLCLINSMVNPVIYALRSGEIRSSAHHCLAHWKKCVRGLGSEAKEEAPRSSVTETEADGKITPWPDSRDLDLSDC
Procedure: (§1) The ability of compounds to act as agonists or inverse agonists at human CB2 and CB1 receptors (hCB2, hCB1, respectively) was determined by measuring changes in intracellular cAMP levels. Chinese Hamster Ovary (CHO-K1) cell lines stably expressing hCB2 (Genebank: X74328) or hCB1 (Genebank: X54937) were purchased from Euroscreen (Gosselies, Belgium).
(§2) Cell lines were grown in suspension in EX-CELL 302 CHO Serum-free medium (Sigma, catalog #14324C) supplemented with 1% Fetal Bovine Serum, glutamine and with or without non-essential amino-acids under 0.4 mg/mL G418 selection.
(§3) Receptor mediated responses were determined by measuring changes in intracellular cAMP using LANCE cAMP detection kit (catalog #AD0264, PerkinElmer, Wellesley, Mass.) based on time-resolved fluorescence resonance energy transfer (TR-FRET). Changes in cAMP were determined in cells pre-incubated with IBMX (isobutyl methylxanthine) and prestimulated with NKH-477 (a water soluble forskolin derivative, catalog #1603, Tocris, Ellisville, Mo.) to increase basal cAMP levels as detailed below.
(§4) On the day of the experiment, cells were spun at low speed for 5 min at room temperature. The supernatant was removed and cells were resuspended in stimulation buffer (Hanks Buffered Salt Solution/5 mM HEPES, containing 0.5 mM IBMX (catalog #17018, Sigma) and 0.02% BSA (PerkinElmer, catalog #CR84-100)). Cell clumps were removed by filtering through cell strainer 40 μm (BD Falcon, Discovery Labware, Bedford, Mass.) and diluted to 2×10^5 cells/mL. Antibody supplied with the LANCE cAMP immunoassay kit was then added according to the manufacturer's instructions. An aliquot of cells was taken for un-induced controls. To the remaining cells was added NKH-477 (a water soluble forskolin derivative, Tocris catalog #1603) to a final concentration of 2-8 μM. Cells were then incubated for either 25 or 30 min at room temperature prior to adding to Proxiplates containing test compounds (final DMSO concentration was less than 0.5%) with a Multidrop bulk dispenser, followed by a sixty minute incubation at room temperature. The response was stopped by addition of the detection mix supplied with the LANCE kit.
(§5) The reagents were allowed to equilibrate for three hours prior to reading on an Envision multi-mode detector (PerkinElmer). TR-FRET was measured using a 330-380 nm excitation filter, 615 and 665 nm emission filters, dichroic mirror 380 nm and Z=1 mm.
(§6) Cyclic AMP concentrations in each well were back-calculated from a cAMP standard curve run concurrently during each assay. Each plate contained 16 wells of forskolin stimulated cells and 16 wells of forskolin plus CP55,940-treated. CP55,940-treated cells were treated with CP55,940 (Tocris catalog #0949) at 1 μM and the maximal response was used as the full range (100%) standard. WIN55,212 (Tocris catalog #1038) was used as an internal standard. Concentrations of cAMP were expressed as a percent of the difference of these two groups of wells. Concentration-response data including EC50 (the concentration of compound producing 50% of the maximal response) and intrinsic activity (the percent maximal activation compared to full activation by CP55,940) were determined using a four-parameter non-linear regression algorithm (Xlfit equation 251, IDBS). Assays were performed with at least three replicates per compound and averaged results for the several compounds of the invention are shown in Table I.

[2] = target: human CB1 receptor (hCB1) (Homo sapiens, UniProt P21554); assay: cAMP assay (LANCE TR-FRET) in CHO-K1 cells expressing hCB1; assay type: cell-based; settings: activity on hCB1 represents inverse agonism; for Emax: CHO-K1, percent of range defined by CP55,940 (1 μM = 100%), read-out: hCB1 % Max Range; for pEC50: CHO-K1 cells stably expressing hCB1, intracellular cAMP, NKH-477 prestimulated
Sequence of human CB1 receptor (hCB1) (P21554 whole entry): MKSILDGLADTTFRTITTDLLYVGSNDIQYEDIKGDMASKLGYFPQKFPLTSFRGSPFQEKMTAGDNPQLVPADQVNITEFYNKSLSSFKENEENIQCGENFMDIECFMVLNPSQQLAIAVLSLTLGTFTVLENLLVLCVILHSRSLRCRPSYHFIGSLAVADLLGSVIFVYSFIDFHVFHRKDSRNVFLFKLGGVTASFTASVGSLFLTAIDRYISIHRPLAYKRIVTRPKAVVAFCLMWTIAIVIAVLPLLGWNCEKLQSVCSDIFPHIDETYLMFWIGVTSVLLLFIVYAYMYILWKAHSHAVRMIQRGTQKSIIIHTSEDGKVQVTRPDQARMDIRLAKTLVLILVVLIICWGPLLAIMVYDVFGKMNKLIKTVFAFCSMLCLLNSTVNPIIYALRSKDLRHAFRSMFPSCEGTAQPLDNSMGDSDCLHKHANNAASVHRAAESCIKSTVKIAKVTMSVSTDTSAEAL
Procedure: as §1, §2, §3, §4, §5
as §6, with “IDBS).” for “IDBS). Assays were performed with at least three replicates per compound and averaged results for the several compounds of the invention are shown in Table I.”

SMILES	Emax [1] [%]	pEC50 [1]	Emax [2] [%]	pEC50 [2]
CCCNC(=O)Nc1ccc2c(c1)C1C3CCC(C3)C1C(c1c(Cl)cccc1Cl)N2 (stereo not drawn) [(26), Bridged 1-(6-(2,6-dichlorophenyl)-5,6,6a,7,8,9,10,10a-octahydrophenanthridin-2-yl)-3-propylurea]	< 40	< 5.00	< 40	< 5.00
CCCNC(=S)Nc1ccc2c(c1)C1C3CCC(C3)C1C(c1c(Cl)cccc1Cl)N2 (stereo not drawn) [(27), Bridged 1-(6-(2,6-dichlorophenyl)-5,6,6a,7,8,9,10,10a-octahydrophenanthridin-2-yl)-3-propylthiourea]	< 40	< 5.00	< 40	< 5.00
O=C(NCc1ccccc1)c1ccc2c(c1)C1C3CCC(C3)C1C(c1ccccc1)N2 (stereo not drawn) [(28), Bridged N-benzyl-6-phenyl-5,6,6a,7,8,9,10,10a-octahydrophenanthridine-2-carboxamide]	84.4	6.43	< 40	< 5.00
CCCCC(=O)Nc1ccc2c(c1)C1C3CCC(C3)C1C(c1ccc(C)cc1)N2 (stereo not drawn) [(29), Bridged N-(6-p-tolyl-5,6,6a,7,8,9,10,10a-octahydrophenanthridin-2-yl)pentanamide]	54.8	7.18	< 40	< 5.00
CN(C)S(=O)(=O)c1ccc2c(c1)C1C3CCC(C3)C1C(c1cncnc1)N2 (stereo not drawn) [(30), Bridged N,N-dimethyl-6-(pyrimidin-5-yl)-5,6,6a,7,8,9,10,10a-octahydrophenanthridine-2-sulfonamide]	99.3	7.14	< 40	< 5.00
CN(C)S(=O)(=O)c1ccc2c(c1)C1C3CCC(C3)C1C(c1nccs1)N2 (stereo not drawn) [(31), Bridged N,N-dimethyl-6-(thiazol-2-yl)-5,6,6a,7,8,9,10,10a-octahydrophenanthridine-2-sulfonamide]	89.2	6.99	< 40	< 5.00
CC(=O)Nc1ccc(C2Nc3ccc(S(=O)(=O)N(C)C)cc3C3C4CCC(C4)C23)cc1 (stereo not drawn) [(32), Bridged N-(4-(2-(N,N-dimethylsulfamoyl)-5,6,6a,7,8,9,10,10a-octahydrophenanthridin-6-yl)phenyl)acetamide]	81.3	6.65	< 40	< 5.00
CN(C)S(=O)(=O)c1ccc2c(c1)C1C3CCC(C3)C1C(c1ccnn1C)N2 (stereo not drawn) [(33), Bridged N,N-dimethyl-6-(1-methyl-1H-pyrazol-5-yl)-5,6,6a,7,8,9,10,10a-octahydrophenanthridine-2-sulfonamide]	94.9	8.12	< 40	< 5.00
O=S(=O)(c1ccc2c(c1)C1C3CCC(C3)C1C(c1cncnc1)N2)N1CCOCC1 (stereo not drawn) [(35), Bridged 4-(6-(pyrimidin-5-yl)-5,6,6a,7,8,9,10,10a-octahydrophenanthridin-2-ylsulfonyl)morpholine]	66.6	5.89	< 40	< 5.00
O=S(=O)(c1ccc2c(c1)C1C3CCC(C3)C1C(c1nccs1)N2)N1CCOCC1 (stereo not drawn) [(36), Bridged 4-(6-(thiazol-2-yl)-5,6,6a,7,8,9,10,10a-octahydrophenanthridin-2-ylsulfonyl)morpholine]	57.1	5.39	< 40	< 5.00
Cn1nccc1C1Nc2ccc(S(=O)(=O)N3CCOCC3)cc2C2C3CCC(C3)C12 (stereo not drawn) [(37), Bridged 4-(6-(1-methyl-1H-pyrazol-5-yl)-5,6,6a,7,8,9,10,10a-octahydrophenanthridin-2-ylsulfonyl)morpholine]	92.6	8.77	< 40	< 5.00
CN(C1CCCCC1)S(=O)(=O)c1ccc2c(c1)C1C3CCC(C3)C1C(c1ccccc1)N2 (stereo not drawn) [(38), Bridged N-cyclohexyl-N-methyl-6-phenyl-5,6,6a,7,8,9,10,10a-octahydrophenanthridine-2-sulfonamide]	79.5	8.07	< 40	< 5.00
NS(=O)(=O)c1ccc2c(c1)C1C3CCC(C3)C1C(c1ccccc1)N2 (stereo not drawn) [(39), Bridged 6-phenyl-5,6,6a,7,8,9, 10,10a-octahydrophenanthridine-2-sulfonamide]	83.3	7.75	172	5.52
Cn1nccc1C1Nc2ccc(S(N)(=O)=O)cc2C2C3CCC(C3)C12 (stereo not drawn) [(40), Bridged 6-(1-methyl-1H-pyrazol-5-yl)-5,6,6a,7,8,9,10,10a-octahydrophenanthridine-2-sulfonamide]	82.7	5.70	< 40	< 5.00
O=S(=O)(c1ccc2c(c1)C1C3CCC(C3)C1C(c1ccccc1)N2)N1CCCC1 (stereo not drawn) [(41), Bridged 6-phenyl-2-(pyrrolidin-1-ylsulfonyl)-5,6,6a,7,8,9,10,10a-octahydrophenanthridine]	104	9.09	< 40	< 5.00
Cn1nccc1C1Nc2ccc(S(=O)(=O)N3CCCC3)cc2C2C3CCC(C3)C12 (stereo not drawn) [(42), Bridged 6-(1-methyl-1H-pyrazol-5-yl)-2-(pyrrolidin-1-ylsulfonyl)-5,6,6a,7,8,9,10,10a-octahydrophenanthridine]	100	9.04	< 40	< 5.00
Cc1nc(-c2ccc3c(c2)C2C4CCC(C4)C2C(c2ccccc2)N3)cs1 (stereo not drawn) [(43), Bridged 2-methyl-4-(6-phenyl-5,6,6a,7,8,9,10,10a-octahydrophenanthridin-2-yl)thiazole]	64.6	6.66	182	5.41
Cc1nc(-c2ccc3c(c2)C2C4CCC(C4)C2C(c2ccnn2C)N3)cs1 (stereo not drawn) [(44), Bridged 2-methyl-4-(6-(1-methyl-1H-pyrazol-5-yl)-5,6,6a,7,8,9,10,1 0a-octahydrophenanthridin-2-yl)thiazole]	70.2	6.73	111	5.53
CCCCc1nnc(-c2ccc3c(c2)C2C4CCC(C4)C2C(c2ccccc2)N3)o1 (stereo not drawn) [(45), Bridged 2-butyl-5-(6-phenyl-5,6,6a,7,8,9,10,10a-octahydrophenanthridin-2-yl)-1,3,4-oxadiazole]	96.8	7.15	< 40	< 5.00
CC(=O)NS(=O)(=O)c1ccc2c(c1)C1C3CCC(C3)C1C(c1ccnn1C)N2 (stereo not drawn) [(47), Bridged N-(6-(1-methyl-1H-pyrazol-5-yl)-5,6,6a,7,8,9,10,10a-octahydrophenanthridin-2-ylsulfonyl)acetamide]	82.5	5.83	< 40	< 5.00
O=S(=O)(c1ccc2c(c1)C1CC=CC1C(c1ccccc1)N2)N1CCCCC1 (stereo not drawn) [(48), 4-phenyl-8-(piperidin-1-ylsulfonyl)-3a,4,5,9b-tetrahydro-1H-cyclopenta[c]quinoline]	82.3	7.13	< 40	< 5.00
